How the values were obtained:
[1] = molecular target: T1, Phospho-EGFR (Tyr1068) in H1975 cells (Homo sapiens, UniProt P00533, L858R/T790M); experiment: HTRF pEGFR/total EGFR assay in H1975 cells; type: cell-based; details: compound 3 hours, ratio pEGFR/total EGFR
T1 construct: host or cells: H1975
Method in brief: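 H1975 cells (EGFR L858R/T790M) adhered 24 h, then compound-treated for 3 h in duplicate, 0.1% DMSO final. Lysates read by HTRF at 665/620 nm for phospho-Tyr1068 and total EGFR. Value is pEGFR/total EGFR ratio as % of 0 uM control.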

[2] = molecular target: CtermHisTag-mEGFR Wild type (Homo sapiens, UniProt P00533); experiment: TR-FRET probe displacement assay, EGFR wild type; type: binding; details: EGFR wild type 1.25 nM, probe 100 nM, 30 mins room temperature
Method in brief: (§1)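 Probe displacement from His-tagged wild-type or triple-mutant EGFR measured by TR-FRET (excitation 337 nm, emission 490/520 nm). Compounds spanned final concentrations from 3 to 100000 nM over ten points; technical replicates, repeated twice biologically.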

[3] = molecular target: T2, Phospho-EGFR (Tyr1068) in H1975 C797S cells (Homo sapiens, UniProt P00533, C797S/L858R/T790M); experiment: HTRF pEGFR/total EGFR assay in H1975 C797S cells; type: cell-based; details: H1975 C797S cells (CRISPR), compound 3 hours, ratio pEGFR/total EGFR
T2 construct: endogenous in cells; host or cells: H1975 C797S (CRISPR-edited in house from ATCC CRL-5908)
Method in brief: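 Phospho-EGFR (Tyr1068) and total EGFR were measured by HTRF (665 and 620 nm) in lysates of NGS-validated H1975 EGFR C797S cells. Cells were dosed for 3 h in duplicate, 0.1% DMSO final. Read-out is the pEGFR/total EGFR ratio relative to the 0 uM control, as percent.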

[4] = molecular target: CtermHisTag-mEGFR Triple Mutant - C797S, L858R, T790M (Homo sapiens, UniProt P00533, C797S/L858R/T790M); experiment: TR-FRET probe displacement assay, EGFR triple mutant; type: binding; details: T790M 1.25 nM, probe 100 nM, 30 mins room temperature
Method in brief: as §1

[5] = molecular target: T3, Phospho-EGFR (Tyr1068) in A431 cells (Homo sapiens, UniProt P00533); experiment: HTRF pEGFR/total EGFR assay in A431 cells (EGF stimulated); type: cell-based; details: compound 2.5 hours then 100 ng/ml EGF 30 mins, ratio pEGFR/total EGFR
T3 construct: endogenous in cells; host or cells: A431
Method in brief: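 HTRF readout (665 and 620 nm) of Tyr1068-phosphorylated versus total EGFR in lysed A431 cells, expressed as ratio relative to 0uM control (%). Compound exposure 2.5 h in duplicate at 0.1% DMSO, with 100 ng/ml EGF added for 30 min.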

Chain of CtermHisTag-mEGFR Wild type (P00533 25-1210): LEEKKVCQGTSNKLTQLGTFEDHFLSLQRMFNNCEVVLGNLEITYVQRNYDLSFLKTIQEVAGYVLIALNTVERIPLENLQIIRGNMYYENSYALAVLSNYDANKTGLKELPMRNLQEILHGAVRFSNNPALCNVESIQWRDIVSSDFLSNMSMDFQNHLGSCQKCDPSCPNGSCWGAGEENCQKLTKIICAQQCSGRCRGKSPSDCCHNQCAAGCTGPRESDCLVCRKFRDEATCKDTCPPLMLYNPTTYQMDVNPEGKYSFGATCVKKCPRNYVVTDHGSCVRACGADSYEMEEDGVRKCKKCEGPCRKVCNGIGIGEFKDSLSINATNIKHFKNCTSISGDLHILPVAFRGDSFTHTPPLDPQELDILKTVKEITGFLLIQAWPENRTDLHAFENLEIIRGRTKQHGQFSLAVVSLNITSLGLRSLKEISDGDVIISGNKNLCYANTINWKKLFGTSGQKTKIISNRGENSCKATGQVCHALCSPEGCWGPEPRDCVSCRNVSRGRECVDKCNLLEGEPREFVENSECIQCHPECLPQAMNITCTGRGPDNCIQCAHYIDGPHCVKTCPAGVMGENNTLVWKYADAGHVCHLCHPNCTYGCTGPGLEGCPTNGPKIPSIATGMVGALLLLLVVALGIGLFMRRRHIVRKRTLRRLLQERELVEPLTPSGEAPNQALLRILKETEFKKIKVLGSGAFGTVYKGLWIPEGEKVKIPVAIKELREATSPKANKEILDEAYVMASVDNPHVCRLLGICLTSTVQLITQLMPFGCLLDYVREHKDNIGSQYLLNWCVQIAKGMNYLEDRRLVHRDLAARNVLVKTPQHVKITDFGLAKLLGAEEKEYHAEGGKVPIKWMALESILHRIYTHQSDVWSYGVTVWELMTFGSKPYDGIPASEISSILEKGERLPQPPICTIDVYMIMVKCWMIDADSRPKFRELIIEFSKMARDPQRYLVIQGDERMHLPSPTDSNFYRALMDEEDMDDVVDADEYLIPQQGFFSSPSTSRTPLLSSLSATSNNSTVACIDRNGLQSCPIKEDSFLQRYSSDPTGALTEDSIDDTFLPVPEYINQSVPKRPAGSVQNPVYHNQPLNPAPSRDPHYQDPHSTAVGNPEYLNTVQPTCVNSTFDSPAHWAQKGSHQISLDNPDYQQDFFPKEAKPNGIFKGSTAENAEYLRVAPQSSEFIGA
T3 sequence (P00533 25-1210): as above
T2 sequence (P00533 25-1210 T790M/C797S/L858R): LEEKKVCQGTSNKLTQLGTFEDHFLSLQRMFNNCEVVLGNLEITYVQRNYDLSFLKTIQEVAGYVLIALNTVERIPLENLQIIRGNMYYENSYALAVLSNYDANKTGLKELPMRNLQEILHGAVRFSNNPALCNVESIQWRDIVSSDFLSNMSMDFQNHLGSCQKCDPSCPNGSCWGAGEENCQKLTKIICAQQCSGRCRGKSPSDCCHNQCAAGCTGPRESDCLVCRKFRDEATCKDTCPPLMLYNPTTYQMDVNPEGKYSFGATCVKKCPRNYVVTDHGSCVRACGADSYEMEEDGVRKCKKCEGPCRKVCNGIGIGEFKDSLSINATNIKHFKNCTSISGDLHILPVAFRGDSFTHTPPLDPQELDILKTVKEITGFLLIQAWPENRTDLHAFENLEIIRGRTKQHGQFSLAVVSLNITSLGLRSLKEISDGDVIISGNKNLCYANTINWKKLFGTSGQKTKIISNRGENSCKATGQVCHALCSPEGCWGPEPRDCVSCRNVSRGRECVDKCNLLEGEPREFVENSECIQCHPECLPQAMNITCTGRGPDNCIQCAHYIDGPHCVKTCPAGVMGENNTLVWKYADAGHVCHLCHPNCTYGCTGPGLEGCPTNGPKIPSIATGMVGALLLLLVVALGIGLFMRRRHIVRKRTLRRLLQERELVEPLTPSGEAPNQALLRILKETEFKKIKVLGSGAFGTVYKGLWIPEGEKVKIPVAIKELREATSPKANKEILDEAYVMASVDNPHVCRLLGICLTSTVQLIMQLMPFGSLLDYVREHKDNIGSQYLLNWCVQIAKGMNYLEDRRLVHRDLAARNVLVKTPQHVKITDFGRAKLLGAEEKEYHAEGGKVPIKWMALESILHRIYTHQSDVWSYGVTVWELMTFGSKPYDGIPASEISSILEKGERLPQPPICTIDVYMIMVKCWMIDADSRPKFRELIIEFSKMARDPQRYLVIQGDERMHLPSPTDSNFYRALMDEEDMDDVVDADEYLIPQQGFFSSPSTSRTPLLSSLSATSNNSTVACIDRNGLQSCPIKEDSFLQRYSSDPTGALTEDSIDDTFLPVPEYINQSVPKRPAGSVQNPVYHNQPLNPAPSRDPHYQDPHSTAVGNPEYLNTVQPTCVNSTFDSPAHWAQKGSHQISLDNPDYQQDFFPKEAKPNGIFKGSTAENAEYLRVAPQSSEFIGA
Chain of CtermHisTag-mEGFR Triple Mutant - C797S, L858R, T790M (P00533 25-1210 T790M/C797S/L858R): as above

Row | IC50 [1] [nM] | IC50 [2] [nM] | IC50 [3] [nM] | IC50 [4] [nM] | IC50 [5] [nM] | Compound
1 | > 3000 | > 10000 | > 3000 | 20 to 100 | > 3000 | C#Cc1cc(N2C(=O)NCC23CCCC3)nc2nc(Nc3ccc(S(=O)(=O)N(C)C)cc3)ncc12 [Example 97, 4-[(5-Ethynyl-7-{2-oxo-1,3-diazaspiro[4.4]nonan-1-yl}pyrido[2,3-d]pyrimidin-2-yl)amino]-N,N-dimethylbenzenesulfonamide]
2 | 1000 to 3000 | > 10000 | 1000 to 3000 | 100 to 1000 | > 3000 | C#Cc1cc(OC(C)C)nc2nc(Nc3ccc(N4CCN(C)CC4)cc3)ncc12 [Example 17, 5-ethynyl-7-isopropoxy-N-[4-(4-methylpiperazin-1-yl)phenyl]pyrido[2,3-d]pyrimidin-2-amine]
3 | < 500 | < 1000 | < 500 | < 20 | < 500 | C#Cc1cc(NC(=O)NC2(C(F)(F)F)CCCC2)nc2nc(Nc3ccc(N4CCN(C)CC4)cc3)ncc12 [Example 60, 1-(5-ethynyl-2-((4-(4-methylpiperazin-1-yl)phenyl)amino)pyrido[2,3-d]pyrimidin-7-yl)-3-(1-(trifluoromethyl)cyclopentyl)urea]
4 | 1000 to 3000 | < 1000 | 1000 to 3000 | 20 to 100 | 1000 to 3000 | C#Cc1cc(N2C(=O)NCC23CCCC3)nc2nc(Nc3ccc(N(C)C(=O)CN(C)C)cc3)ncc12 [Example 94, 2-(Dimethylamino)-N-{4-[(5-ethynyl-7-{2-oxo-1,3-diazaspiro[4.4]nonan-1-yl}pyrido[2,3-d]pyrimidin-2-yl)amino]phenyl}-N-methylacetamide]
5 | 1000 to 3000 | 1000 to 10000 | 1000 to 3000 | < 20 | > 3000 | C#Cc1cc(NC(=O)CCc2ccccc2)nc2nc(Nc3ccc(N4CCN(C)CC4)cc3)ncc12 [Example 32, N-(5-ethynyl-2-{[4-(4-methylpiperazin-1-yl)phenyl]amino}pyrido[2,3-d]pyrimidin-7-yl)-3-phenylpropanamide]
6 | 1000 to 3000 | 1000 to 10000 | > 3000 | 20 to 100 | > 3000 | C#Cc1cc(OC)nc2nc(Nc3ccc(N4CCN(C)CC4)c(NC4CCC4)c3)ncc12 [Example 8, N^3-cyclobutyl-N^1-{5-ethynyl-7-methoxypyrido[2,3-d]pyrimidin-2-yl}-4-(4-methylpiperazin-1-yl)benzene-1,3-diamine]
7 | 1000 to 3000 | < 1000 | > 3000 | < 20 | > 3000 | C#Cc1cc(NC(=O)N[C@H]2CCN(C(C)=O)C2)nc2nc(Nc3ccc(N4CCN(C)CC4)cc3)ncc12 [Example 53, 3-[(3S)-1-acetylpyrrolidin-3-yl]-1-(5-ethynyl-2-{[4-(4-methylpiperazin-1-yl)phenyl]amino}pyrido[2,3-d]pyrimidin-7-yl)urea]
8 | > 3000 | > 10000 | > 3000 | 100 to 1000 | > 3000 | C#Cc1cc(OC)nc2nc(Nc3ccc(N4CCN(C)CC4)c(NCc4ccn(C)n4)c3)ncc12 [Example 11, N^1-{5-ethynyl-7-methoxypyrido[2,3-d]pyrimidin-2-yl}-4-(4-methylpiperazin-1-yl)-N^3-[(1-methylpyrazol-3-yl)methyl]benzene-1,3-diamine]
9 | 1000 to 3000 | < 1000 | 1000 to 3000 | 20 to 100 | 500 to 1000 | C#Cc1cc(N2C(=O)NCC23CCCC3)nc2nc(Nc3ccc(OCCN(C)C)cc3)ncc12 [Example 95]
10 | < 500 | < 1000 | < 500 | < 20 | 1000 to 3000 | C#Cc1cc(NC(=O)NC2CCC2)nc2nc(Nc3ccc(N4CCN(C)CC4)cc3)ncc12 [Example 41, 3-cyclobutyl-1-(5-ethynyl-2-{[4-(4-methylpiperazin-1-yl)phenyl]amino}pyrido[2,3-d]pyrimidin-7-yl)urea]
11 | 500 to 1000 | < 1000 | > 3000 | < 20 | 500 to 1000 | C#Cc1cc(N2C(=O)OC[C@@H]2C(C)C)nc2nc(Nc3ccc(N4CCN(C)CC4)cc3)ncc12 [Example 70, (4S)-3-(5-ethynyl-2-{[4-(4-methylpiperazin-1-yl)phenyl]amino}pyrido[2,3-d]pyrimidin-7-yl)-4-isopropyl-1,3-oxazolidin-2-one]
12 | > 3000 | > 10000 | > 3000 | < 20 | > 3000 | C#Cc1cc(NC(=O)NC2CCCC2)nc2nc(Nc3ccc(S(=O)(=O)N(C)C)cc3)ncc12 [Example 82, 3-Cyclopentyl-1-(2-([4-(dimethylsulfamoyl)phenyl]amino-5-ethynyl)pyrido[2,3-d]pyrimidin-7-yl)urea]
13 | 500 to 1000 | < 1000 | 500 to 1000 | < 20 | > 3000 | C#Cc1cc(N2C(=O)OCC2CC2CCCC2)nc2nc(Nc3ccc(N4CCN(C)CC4)cc3)ncc12 (stereo not drawn) [Example 112, 4-(Cyclopentylmethyl)-3-(5-ethynyl-2-{[4-(4-methylpiperazin-1-yl)phenyl]amino}pyrido[2,3-d]pyrimidin-7-yl)-1,3-oxazolidin-2-one]
14 | < 500 | 1000 to 10000 | 1000 to 3000 | < 20 | < 500 | C#Cc1cc(N2C(=O)NCC2C(C)C)nc2nc(Nc3ccc(N4CCN(C)CC4)cc3)ncc12 (stereo not drawn) [Example 64, 1-(5-ethynyl-2-{[4-(4-methylpiperazin-1-yl)phenyl]amino}pyrido[2,3-d]pyrimidin-7-yl)-5-isopropylmidazolidin-2-one]
15 | 1000 to 3000 | 1000 to 10000 | 1000 to 3000 | < 20 | > 3000 | C#Cc1cc(N2CCCC2=O)nc2nc(Nc3ccc(N4CCN(C)CC4)cc3)ncc12 [Example 31, 1-(5-ethynyl-2-{[4-(4-methylpiperazin-1-yl)phenyl]amino}pyrido[2,3-d]pyrimidin-7-yl)pyrrolidin-2-one]
16 | < 500 | < 1000 | < 500 | < 20 | 1000 to 3000 | C#Cc1cc(NC(=O)NC2CC2)nc2nc(Nc3ccc(N4CCN(C)CC4)cc3)ncc12 [Example 44, 3-cyclopropyl-1-(5-ethynyl-2-{[4-(4-methylpiperazin-1-yl)phenyl]amino}pyrido[2,3-d]pyrimidin-7-yl)urea]
17 | > 3000 | 1000 to 10000 | > 3000 | 100 to 1000 | > 3000 | C#Cc1cc(NC(=O)NC2CCCC2)nc2nc(Nc3cccc4c3CN(C)C4)ncc12 [Example 117, 3-Cyclopentyl-1-{5-ethynyl-2-[(2-methyl-1,3-dihydroisoindol-4-yl)amino]pyrido[2,3-d]pyrimidin-7-yl}urea]
18 | > 3000 | > 10000 | > 3000 | 100 to 1000 | > 3000 | C#Cc1cc(OC)nc2nc(Nc3cccc(CN(C)C(C)=O)c3)ncc12 [Example 7, N-{[3-({5-ethynyl-7-methoxypyrido[2,3-d]pyrimidin-2-yl}amino)pheny]methyl}-N-methylacetamide]
19 | 1000 to 3000 | 1000 to 10000 | > 3000 | < 20 | > 3000 | C#Cc1cc(-n2cccc2)nc2nc(Nc3ccc(N4CCN(C)CC4)cc3)ncc12 [Example 36, 5-ethynyl-N-[4-(4-methylpiperazin-1-yl)phenyl]-7-(pyrrol-1-yl)pyrido[2,3-d]pyrimidin-2-amine]
20 | 500 to 1000 | > 10000 | 1000 to 3000 | 100 to 1000 | > 3000 | C#Cc1cc(N2C(=O)NC[C@H]2C(C)C)nc2nc(Nc3ccc(N4CCN(C)CC4)cc3)ncc12 [Example 100, (5R)-1-(5-Ethynyl-2-{[4-(4-methylpiperazin-1-yl)phenyl]amino}pyrido[2,3-d]pyrimidin-7-yl)-5-isopropylmidazolidin-2-one]
21 | > 3000 | < 1000 | 500 to 1000 | 20 to 100 | 1000 to 3000 | C#Cc1cc(NC(=O)NC2CCCC2)nc2nc(Nc3cccc(CN4CCC(CS(C)(=O)=O)C4)c3)ncc12 (stereo not drawn) [Example 86]
